Data: ChEMBL document CHEMBL1255477, “In vitro properties of BAL30072, a novel siderophore sulfactam with activity against multiresistant gram-negative bacilli” (Antimicrob Agents Chemother, 2010)
≈ marks a conversion by molar mass, not a printed value. Calls of active or inactive are those of the source. The calls are words filed in the database; no cut-off is given here.

Columns and labels:
Pseudomonas aeruginosa [1] = test: Antimicrobial activity against Pseudomonas aeruginosa 1024 assessed as log reduction in colony count within 6 hrs selected after 4 to 8 times MIC compound exposure; assay type: functional, organism-based
Pseudomonas aeruginosa [2] = test: Microbicidal activity against Pseudomonas aeruginosa 527 selected after 4 times MIC compound exposure; assay type: functional
Acinetobacter junii [3] = test: Antimicrobial activity against Acinetobacter junii 15218 assessed as appearance of colony at 4 times MIC concentration; assay type: functional
Klebsiella pneumoniae = test: Antimicrobial activity against Klebsiella pneumoniae 1338665 assessed as appearance of colony at 4 times MIC concentration; assay type: functional, organism-based
Escherichia coli [4] = test: Antimicrobial activity against Escherichia coli W3110 assessed as appearance of spheroplast at 4 ug/mL after 3 hrs by phase-contrast microscopy; assay type: functional, organism-based
[5] = Inhibition of Escherichia coli Penicillin-binding protein 1B
Enterobacter cloacae [6] = test: Antimicrobial activity against Enterobacter cloacae S9369 assessed as number of passages required for MIC to rise above 4 times original MIC; assay type: functional
Acinetobacter baumannii [7] = test: Microbicidal activity against Acinetobacter baumannii HPA74510 selected after 4 times MIC compound exposure; assay type: functional
AmpC = AmpC (Escherichia coli, UniProt Q83TT7); test: Inhibition of Escherichia coli ATCC 25922 AmpC
Pseudomonas aeruginosa [8] = test: Antimicrobial activity against fpvA, fpvB, fptA and pirA gene deficient Pseudomonas aeruginosa 860 by broth dilution method; assay type: functional
Enterobacter cloacae [9] = test: Microbicidal activity against Enterobacter cloacae S9369 selected after 8 times MIC compound exposure; assay type: functional
Beta-lactamase = Beta-lactamase (Citrobacter freundii, UniProt P05193); test: Inhibition of Citrobacter freundii AmpC
Pseudomonas aeruginosa [10] = test: Antimicrobial activity against fpvA deficient Pseudomonas aeruginosa (560546)9 M.P. by broth dilution method; assay type: functional
Pseudomonas aeruginosa [11] = test: Antimicrobial activity against Pseudomonas aeruginosa 527 assessed as number of passages required for MIC to rise above 4 times original MIC; assay type: functional
Escherichia coli [12] = test: Antimicrobial activity against Escherichia coli K802N harboring beta-lactamase TEM-3 by broth dilution method; assay type: functional
Pseudomonas aeruginosa [13] = test: Antimicrobial activity against pfeA deficient Pseudomonas aeruginosa 134 by broth dilution method; assay type: functional
Acinetobacter junii [14] = test: Antimicrobial activity against Acinetobacter junii 15218 assessed as highest concentration at which colonies reappeared; assay type: functional
[15] = system: Stenotrophomonas maltophilia; test: Microbicidal activity against Stenotrophomonas maltophilia 1AC736 selected after MIC of compound exposure; assay type: functional
Burkholderia sp. = test: Antimicrobial activity against Burkholderia sp. by broth dilution method; assay type: functional
Escherichia coli [16] = test: Antimicrobial activity against Escherichia coli W3110 assessed as highest concentration at which colonies reappeared; assay type: functional
Providencia stuartii = test: Antimicrobial activity against Providencia stuartii by broth dilution method; assay type: functional
Citrobacter freundii = test: Antimicrobial activity against Citrobacter freundii by broth dilution method; assay type: functional
Acinetobacter baumannii [17] = test: Antimicrobial activity against Acinetobacter baumannii HPA 4737 harboring beta-lactamase OXA-26 by broth dilution method; assay type: functional
[18] = Inhibition of Pseudomonas aeruginosa 143724R beta-lactamase class C
Enterobacteriaceae = test: Antimicrobial activity against Enterobacteriaceae by broth dilution method; assay type: functional
Pseudomonas aeruginosa [19] = test: Microbicidal activity against Pseudomonas aeruginosa HPA10586 selected after 8 times MIC compound exposure; assay type: functional
Pseudomonas aeruginosa [20] = test: Antimicrobial activity against Pseudomonas aeruginosa BA assessed as appearance of colony at 4 times MIC concentration; assay type: functional
[21] = system: Stenotrophomonas maltophilia; test: Antimicrobial activity against Stenotrophomonas maltophilia 1AC736 assessed as log reduction in colony count within 6 hrs selected after 1 to 16 times MIC compound exposure; assay type: functional, organism-based
[22] = system: Stenotrophomonas maltophilia; test: Antimicrobial activity against Stenotrophomonas maltophilia B715 harboring beta-lactamase L1and L2 by broth dilution method; assay type: functional
Enterobacter cloacae [23] = test: Antimicrobial activity against Enterobacter cloacae S4741B assessed as log reduction in colony count after 24 hrs; assay type: functional
Pseudomonas aeruginosa [24] = test: Antimicrobial activity against Pseudomonas aeruginosa 1937E harboring beta-lactamase PSE-4 and class C enzymes by broth dilution method; assay type: functional
Klebsiella aerogenes = test: Antimicrobial activity against Enterobacter aerogenes by broth dilution method; assay type: functional
Enterobacter cloacae [25] = test: Antimicrobial activity against Enterobacter cloacae S4741B assessed as appearance of colony at 4 times MIC concentration; assay type: functional
[26] = Inhibition of beta-lactamase TEM-3
[27] = Inhibition of beta-lactamase SHV-2
Enterobacter cloacae [28] = test: Antimicrobial activity against Enterobacter cloacae S9369 assessed as log reduction in colony count after 24 hrs; assay type: functional
[29] = system: Stenotrophomonas maltophilia; test: Antimicrobial activity against Stenotrophomonas maltophilia by broth dilution method; assay type: functional
Pseudomonas aeruginosa [30] = test: Microbicidal activity against Pseudomonas aeruginosa BA selected after 8 times MIC compound exposure; assay type: functional
Enterobacter cloacae [31] = test: Antimicrobial activity against Enterobacter cloacae S9369 assessed as appearance of colony at 4 times MIC concentration; assay type: functional, organism-based
Enterobacter cloacae [32] = test: Antimicrobial activity against Enterobacter cloacae S4741B assessed as number of passages required for MIC to rise above 4 times original MIC; assay type: functional
Pseudomonas aeruginosa [33] = test: Antimicrobial activity against mexAB-oprM protein and mexCD-oprJ deficient Pseudomonas aeruginosa PAO238 by broth dilution method; assay type: functional
Enterobacter cloacae [34] = test: Antimicrobial activity against Enterobacter cloacae S9369 assessed as highest concentration at which colonies reappeared; assay type: functional
Enterobacter cloacae [35] = test: Antimicrobial activity against Enterobacter cloacae S4741B assessed as highest concentration at which colonies reappeared; assay type: functional
Proteus vulgaris = test: Antimicrobial activity against Proteus vulgaris by broth dilution method; assay type: functional

AmpC, sequence (Q83TT7 whole entry): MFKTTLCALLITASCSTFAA
Beta-lactamase, sequence (P05193 whole entry): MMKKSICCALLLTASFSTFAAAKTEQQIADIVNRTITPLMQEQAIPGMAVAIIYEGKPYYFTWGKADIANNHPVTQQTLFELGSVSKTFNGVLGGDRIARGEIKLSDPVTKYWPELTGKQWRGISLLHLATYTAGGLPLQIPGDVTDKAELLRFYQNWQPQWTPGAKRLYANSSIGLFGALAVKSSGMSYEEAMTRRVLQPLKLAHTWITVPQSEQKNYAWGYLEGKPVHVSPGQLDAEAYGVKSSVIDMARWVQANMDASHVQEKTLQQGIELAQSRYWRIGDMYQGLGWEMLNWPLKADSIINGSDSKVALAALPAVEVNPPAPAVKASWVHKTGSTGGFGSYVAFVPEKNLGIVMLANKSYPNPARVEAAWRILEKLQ

With CC1(C)[C@H](NC(=O)/C(=N\OCc2cc(=O)c(O)cn2O)c2csc(N)n2)C(=O)N1OS(=O)(=O)O (stereo in doubt) the Activity (Pseudomonas aeruginosa [1]) was “Active”, the MBC (Pseudomonas aeruginosa [2]) was 8 µg/mL (≈ 15.4 µM) and the Activity (Acinetobacter junii [3]) was “Active”. The Activity (Klebsiella pneumoniae) was “Active”, the Activity (Escherichia coli [4]) was “Active” and the IC50 [5] was 1.9 µM. It also gave an Activity (Enterobacter cloacae [6]) of 8 passages, an MBC (Acinetobacter baumannii [7]) of 0.5 µg/mL (≈ 0.964 µM) and an IC50 (AmpC) of 0.5 µM. It also gave an MIC (Pseudomonas aeruginosa [8]) of 1 µg/mL (≈ 1.93 µM), an MBC (Enterobacter cloacae [9]) of 8 µg/mL (≈ 15.4 µM) and an IC50 (Beta-lactamase) of 2.7 µM. The MIC (Pseudomonas aeruginosa [10]) was 1 µg/mL (≈ 1.93 µM), the Activity (Pseudomonas aeruginosa [11]) was 9 passages and the MIC (Escherichia coli [12]) was > 32 µg/mL. It also gave an MIC (Pseudomonas aeruginosa [13]) of 1 µg/mL (≈ 1.93 µM), an Activity (Acinetobacter junii [14]) of 1 mg/L and an MBC [15] of 0.125 µg/mL. The MIC (Burkholderia sp.) was ≤ 0.06 µg/mL, the MIC50 (Burkholderia sp.) was ≤ 0.06 µg/mL and the MIC90 (Burkholderia sp.) was 0.125 µg/mL (≈ 0.241 µM). For the same compound, the Activity (Escherichia coli [16]) was 1 mg/L, the MIC (Providencia stuartii) was ≤ 0.06 µg/mL and the MIC50 (Providencia stuartii) was ≤ 0.06 µg/mL. For the same compound, the MIC90 (Providencia stuartii) was ≤ 0.06 µg/mL, the MIC50 (Citrobacter freundii) was 4 µg/mL (≈ 7.71 µM) and the MIC90 (Citrobacter freundii) was 16 µg/mL (≈ 30.9 µM). It also gave an MIC (Acinetobacter baumannii [17]) of 8 µg/mL (≈ 15.4 µM), an IC50 [18] of 27 µM and an MIC50 (Enterobacteriaceae) of 2 µg/mL (≈ 3.86 µM). For the same compound, the MBC (Pseudomonas aeruginosa [19]) was 8 µg/mL (≈ 15.4 µM), the Activity (Pseudomonas aeruginosa [20]) was “Active” and the Activity (Pseudomonas aeruginosa [20]; record 2) was 2.1 frequency. For the same compound, the Activity [21] was “Active”, the MIC [22] was 0.25 µg/mL (≈ 0.482 µM) and the FC (Enterobacter cloacae [23]) was 3. For the same compound, the MIC (Pseudomonas aeruginosa [24]) was 2 µg/mL (≈ 3.86 µM), the MIC50 (Klebsiella aerogenes) was 0.5 µg/mL (≈ 0.964 µM) and the MIC90 (Klebsiella aerogenes) was 16 µg/mL (≈ 30.9 µM). For the same compound, the Activity (Enterobacter cloacae [25]) was 7 frequency, the IC50 [26] was 4.6 µM and the IC50 [27] was 3.4 µM. For the same compound, the FC (Enterobacter cloacae [28]) was 3, the MIC50 [29] was 0.5 µg/mL (≈ 0.964 µM) and the MIC90 [29] was 2 µg/mL (≈ 3.86 µM). The MBC (Pseudomonas aeruginosa [30]) was 4 µg/mL (≈ 7.71 µM), the Activity (Enterobacter cloacae [31]) was “Active” and the Activity (Enterobacter cloacae [32]) was 9 passages. The MIC (Pseudomonas aeruginosa [33]) was 0.125 µg/mL (≈ 0.241 µM), the Activity (Enterobacter cloacae [34]) was 8 mg/L and the Activity (Enterobacter cloacae [35]) was 16 mg/L. The MIC (Proteus vulgaris) was ≤ 0.06 µg/mL, the MIC50 (Proteus vulgaris) was ≤ 0.06 µg/mL and the MIC90 (Proteus vulgaris) was 0.25 µg/mL (≈ 0.482 µM).
